Measurements from patent US6579881B2 (Eisai Co., Ltd., priority 1997, dated 2003).
Counter-ions that a name gives are not always drawn.

How the values were obtained:
serotonin 1A receptor = molecular target: T1, serotonin 1A receptor (Rattus norvegicus, UniProt P19327); assay: Binding test on [3H] 8-hydroxy-dipropylaminotetralin (serotonin 1A receptor); conditions: [3H] 8-OH-DPAT 0.5 nM, receptor fraction of rat hippocampus; read-out: 5HT1a
T1 construct: To the receptor fraction of the hippocampus were added a test compound and 0.5 nM of [^3H]; 8-hydroxy-dipropylaminotetralin; from tissue; host or cells: SD rat hippocampus, membrane (receptor) fraction
T1 sequence (P19327 1-422): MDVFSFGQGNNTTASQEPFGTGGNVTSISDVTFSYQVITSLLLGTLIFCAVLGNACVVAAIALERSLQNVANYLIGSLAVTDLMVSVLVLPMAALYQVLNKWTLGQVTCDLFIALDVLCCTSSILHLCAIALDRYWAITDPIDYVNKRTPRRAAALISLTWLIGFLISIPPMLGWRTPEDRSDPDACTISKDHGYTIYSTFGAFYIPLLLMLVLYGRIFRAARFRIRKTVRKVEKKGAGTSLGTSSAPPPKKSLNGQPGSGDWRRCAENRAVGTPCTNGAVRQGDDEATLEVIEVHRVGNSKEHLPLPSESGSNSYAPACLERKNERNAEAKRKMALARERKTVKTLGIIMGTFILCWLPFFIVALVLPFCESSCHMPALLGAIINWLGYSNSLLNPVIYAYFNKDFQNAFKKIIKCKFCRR

α1 adrenalin receptor = assay: Binding test on [3H] prazosin (α1 adrenalin receptor); set-up: species or system rat; conditions: [3H] prazosin about 0.2 nM, receptor fraction of rat cerebral cortex
serotonin 2 receptor = serotonin 2 receptor (Rattus norvegicus, UniProt P14842); assay: Binding test on [3H] ketanserin (serotonin 2 receptor); conditions: [3H] ketanserin 0.3 nM, receptor fraction of rat cerebral cortex; read-out: 5HT2
Sequence of serotonin 2 receptor (P14842 whole entry): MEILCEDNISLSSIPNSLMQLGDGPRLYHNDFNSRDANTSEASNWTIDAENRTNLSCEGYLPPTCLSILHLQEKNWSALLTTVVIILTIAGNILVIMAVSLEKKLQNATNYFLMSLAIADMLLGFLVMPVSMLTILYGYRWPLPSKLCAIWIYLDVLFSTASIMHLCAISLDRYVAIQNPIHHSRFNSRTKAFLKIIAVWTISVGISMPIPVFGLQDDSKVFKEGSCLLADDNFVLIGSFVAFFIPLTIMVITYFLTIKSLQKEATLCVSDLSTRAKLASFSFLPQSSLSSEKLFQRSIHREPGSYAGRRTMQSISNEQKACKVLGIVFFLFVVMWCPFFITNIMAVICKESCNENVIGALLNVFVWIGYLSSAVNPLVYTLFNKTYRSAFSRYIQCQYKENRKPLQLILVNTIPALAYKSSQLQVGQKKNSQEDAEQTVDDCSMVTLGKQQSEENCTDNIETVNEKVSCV

Row | melting point | Ki (serotonin 1A receptor) [nM] | Ki (α1 adrenalin receptor) [nM] | Ki (serotonin 2 receptor) [nM] | Compound
1 | 103 to 106 °C |  |  |  | CC(=O)NCc1ccc2ccn(C3CCN(CCc4ccc(F)cc4F)CC3)c2c1 (as salt: oxalate) [Example 357, 1-[1-(2,4-difluorophenethyl)piperidin-4-yl]-6-acetamidomethylindole]
2 | 146 to 148 °C | 3.74 |  | 3.12 | CC(C)NC(=O)Cc1ccc2ccn(C3CCN(CCc4ccc(F)cc4)CC3)c2c1 [Example 286, 1-[1-(4-fluorophenethyl)piperidin-4-yl]-6-(N-isopropylcarbamoylmethyl)indole]
3 | 108 to 109 °C |  |  |  | O=C(CCN1CCCCC1)NCc1ccc2ccn(C3CCN(CCc4ccc(F)cc4)CC3)c2c1 (as salt: oxalate) [Example 379, 1-[1-(4-fluorophenethyl)piperidin-4-yl]-6-[3-(piperidin-1-yl)propionylamino]methylindole]
4 | 112 to 113 °C |  |  |  | CN(C)CC(=O)NCc1ccc2ccn(C3CCN(CCc4ccc(F)cc4)CC3)c2c1 (as salt: oxalate) [Example 375, 1-[1-(4-fluorophenethyl)piperidin-4-yl]-6-(N,N-dimethylaminoacetamido)methylindole]
5 | 113 to 114 °C |  |  |  | O=C(CN1CCCCC1)NCc1ccc2ccn(C3CCN(CCc4ccc(F)cc4)CC3)c2c1 (as salt: oxalate) [Example 376, 1-[1-(4-fluorophenethyl)piperidin-4-yl]-6-[(piperidin-1-yl)acetamido]methylindole]
6 | 143 to 144 °C | 0.24 |  | 1.77 | O=C(CCl)NCc1ccc2ccn(C3CCN(CCc4ccc(F)cc4)CC3)c2c1 [Example 373, 1-[1-(4-fluorophenethyl)piperidin-4-yl]-6-chloroacetamidomethylindole]
7 | 140 to 141 °C | 0.53 |  | 15.5 | CC(=O)NCc1ccc2ccn(C3CCN(CCc4ccc(Br)cc4)CC3)c2c1 [Example 389, 1-[1-(4-bromophenethyl)piperidin-4-yl]-6-acetamidomethylindole]
8 | 117 to 118 °C | 0.13 |  | 0.25 | COC(=O)NCc1ccc2ccn(C3CCN(CCc4ccc(F)cc4)CC3)c2c1 [Example 384, 1-[1-(4-fluorophenethyl)piperidin-4-yl]-6-methoxycarbonylaminomethylindole]
9 | 148 to 149 °C |  |  |  | CC(=O)N(C)Cc1ccc2ccn(C3CCN(CCc4ccc(F)cc4)CC3)c2c1 (as salt: oxalate) [Example 359, 1-[1-(4-fluorophenethyl)piperidin-4-yl]-6-N-methylacetamidomethylindole]
10 | 156 to 157 °C |  |  |  | O=C(NCc1ccc2ccn(C3CCN(CCc4ccc(F)cc4)CC3)c2c1)n1ccnc1 (as salt: oxalate) [Example 368, 1-[1-(4-fluorophenethyl)piperidin-4-yl]-6-imidazocarbonylaminomethylindole]
11 | 104 to 105 °C |  |  |  | CN(C)CCC(=O)NCc1ccc2ccn(C3CCN(CCc4ccc(F)cc4)CC3)c2c1 (as salt: oxalate) [Example 378, 1-[1-(4-fluorophenethyl)piperidin-4-yl]-6-(3-N,N-dimethylaminopropionyl)aminomethylindole]
12 | 195 to 196 °C |  |  |  | CNCc1ccc2ccn(C3CCN(CCc4ccc(F)cc4)CC3)c2c1 (as salt: oxalate) [Example 361, 1-[1-(4-fluorophenethyl)piperidin-4-yl]-6-N-methylaminomethylindole]
13 | 238 to 240 °C | < 0.2 |  | > 20 | NC(=O)c1ccc2ccn(C3CCN(CCc4ccc(F)cc4)CC3)c2c1 [Example 337, 1-[1-(4-fluorophenethyl)piperidin-4-yl]-6-carbamoylindole]
14 | 59 to 60 °C | 1.52 |  | > 20 | CC(=O)NCc1ccc2ccn(C3CCN(CCCCc4ccc(F)cc4)CC3)c2c1 [Example 356, 1-{1-[4-(4-fluorophenyl)butyl]-piperidin-4-yl}-6-acetamidomethylindole]

Continued, compound first:

Row | Compound | melting point | Ki (serotonin 1A receptor) [nM] | Ki (α1 adrenalin receptor) [nM] | Ki (serotonin 2 receptor) [nM]
15 | CC(=O)NCc1ccc2ccn(C3CCN(CCc4ccccc4F)CC3)c2c1 [Example 352, 1-[1-(2-fluorophenethyl)piperidin-4-yl]-6-acetamidomethylindole] | 101 to 102 °C | 1.58 | 96.7 | 0.75
16 | COc1ccc2c(c1C)N(C1CCN(CCc3ccc(F)cc3)CC1)CCC2 (as salt: oxalate) | 176 to 178 °C |  |  | 
17 | O=C(CF)NCc1ccc2ccn(C3CCN(CCc4ccccc4F)CC3)c2c1 (as salt: oxalate) [Example 381, 1-[1-(2-fluorophenethyl)piperidin-4-yl]-6-fluoroacetamidomethylindole] | 168 to 169 °C |  |  | 
18 | NCc1ccc2ccn(C3CCN(CCc4ccccc4F)CC3)c2c1 [Example 348, 1-[1-(2-fluorophenethyl)piperidin-4-yl]-6-aminomethylindole] | 86 to 87 °C |  |  | 
19 | OCCOc1ccc2c(c1)CCCC2C1CCN(CCc2ccc(F)cc2)CC1 (stereo not drawn) (as salt: hydrochloride) [Example 278, 1-[2-(4-fluorophenyl)ethyl]-4-[6-(2-hydroxy)ethoxy-1,2,3,4-tetrahydronaphthalen-1-yl]piperidine] | 213 to 215 °C (dec.) |  |  | 
20 | COc1ccc2c(c1)N(C1CCN(CC(=O)c3ccc(F)cc3)CC1)CCC2 (as salt: hydrochloride) | 153 to 155 °C (dec.) |  |  | 
21 | COc1ccc2c(c1)N(C1CCN(CCc3cccs3)CC1)CCC2 (as salt: hydrochloride) [Example 270, 1-{1-[2-(2-Thienyl)ethyl]piperidin-4-yl}-7-methoxy-1,2,3,4-tetrahydroquinoline Hydrochloride] | 232 to 235 °C |  |  | 
22 | O=[N+]([O-])c1ccc(CCN2CCC(N3CCc4ccccc43)CC2)cc1 [Example 29, 1-[1-(4-nitrophenethyl)piperidin-4-yl]indoline] | 95 to 97 °C |  |  | 36.5
23 | COc1ccc2c(c1OC)N(C1CCN(CCc3ccc(F)cc3)CC1)CCC2 (as salt: hydrochloride) | 213 to 215 °C |  |  | 
24 | CCN1CCN([C@@H]2c3ccccc3CC2N(C)Cc2ccc(F)cc2)CC1 (stereo partly drawn) (as salt: hydrochloride) [Example 254] | 196 to 198 °C |  |  | 
25 | O=C1CCCN1Cc1ccc2ccn(C3CCN(CCc4ccc(F)cc4)CC3)c2c1 (as salt: oxalate) [Example 358, 1-[1-(4-fluorophenethyl)piperidin-4-yl]-6-(2-pyrrolidon-1-yl)methylindole] | 179 to 180 °C |  |  | 
26 | COc1ccc2c(c1)N(C1CCN(CCCC#N)CC1)CCC2 (as salt: hydrochloride) [Example 269, 1-[1-(4-Cyanopropyl)piperidin-4-yl]-7-methoxy-1,2,3,4-tetrahydroquinoline Hydrochloride] | 180 to 183 °C (dec.) |  |  | 
27 | COc1ccc2c(c1)N(C1CCN(CCc3ccc(F)cc3)CC1)CCC2 (as salt: hydrochloride) | 258 °C (dec.) |  |  | 
28 | NC(=O)Cc1ccc2ccn(C3CCN(CCc4ccc(F)cc4F)CC3)c2c1 [Example 299, 1-[1-(2,4-difluorophenethyl)piperidin-4-yl]-6-carbamoylmethylindole] | 156.9 to 157.8 °C | 0.11 |  | 2.54
29 | O=C(Cc1ccc2ccn(C3CCN(CCc4ccc(F)cc4)CC3)c2c1)N1CCCC1 (as salt: oxalate) [Example 298, 1-[1-(4-fluorophenethyl)piperidin-4-yl]-6-(tetramethylenecarbamoylmethyl)indole Oxalate] | 171.5 to 172.1 °C |  |  | 
30 | CCS(=O)(=O)Nc1ccc2ccn(C3CCN(CCc4ccc(F)cc4)CC3)c2c1 [Example 335, 1-[1-(4-fluorophenethyl)piperidin-4-yl]-6-(N-methylmethanesulfonylamino)indole] | 192 to 194 °C |  |  | 
31 | O=C(CCl)NCc1ccc(CCN2CCC(N3CCc4ccccc43)CC2)cc1 (as salt: oxalate) [Example 37, 1-[1-(4-chloroacetamidomethylphenethyl)piperidin-4-yl]indoline] | 138 °C |  |  | 
32 | O=C(Cc1ccc2ccn(C3CCN(CCc4ccc(F)cc4)CC3)c2c1)N1CCCC1 [Example 298, 1-[1-(4-fluorophenethyl)piperidin-4-yl]-6-(tetramethylenecarbamoylmethyl)indole Oxalate] |  | 1.86 | 27.9 | 21.3
33 | CS(=O)(=O)NCc1ccc(CCN2CCC(N3CCc4ccccc43)CC2)cc1 (as salt: oxalate) [Example 38, 1-[1-(4-methanesulfonylaminomethylphenethyl)piperidin-4-yl]indoline] | 199 °C |  |  | 
34 | COc1ccc2c(c1)N(C1CCN(CCc3ccc(F)cc3)CC1)C(C)(C)C2 (as salt: oxalate) [Example 396, 2,2-Dimethyl-1-[1-(4-fluorophenethyl)piperidin-4-yl]-6-methoxyindoline] | 228 °C (dec.) |  |  | 
35 | O=C(Cc1ccc2ccn(C3CCN(CCc4ccc(F)cc4)CC3)c2c1)NCCN1CCOCC1 [Example 313, 1-[1-(4-fluorophenethyl)piperidin-4-yl]-6-[2-(morpholin-4-yl)ethyl]carbamoylmethylindole Oxalate] |  | 13.1 | 144 | 1.58
